Assay results as given in US20250197457A1, “CHIMERIC IGG-FC-BINDING LIGAND POLYPEPTIDE AND USES THEREOF FOR IGG AFFINITY PURIFICATION” (Roche Diagnostics Operations, Inc., priority 2021, published 2025).

Key:
human IgG [1] = settings: cited from earlier work
rabbit IgG = target: T1, rabbit IgG (Oryctolagus cuniculus, UniProt P01870); settings: Gong et al.; cited from earlier work
T1 construct: purchased Sigma-Aldrich

IgG-Fc-region = settings: DeLano et al. 2000; cited from earlier work
human IgG [2] = assay: SPR interaction assay (Biacore), scaffolds immobilised, human IgG as analyte; type: binding; settings: hIgG at 25° C.
Protocol: Surface plasmon resonance (SPR) The affinities and binding kinetics of the generated TtSlyD-Fc-III-4C mutants were evaluated by SPR using a Biacore biosensensor system. The Biacore system enables a real-time monitoring of intermolecular interactions between the ligand, immobilised on a sensor chip gold-surface, and the analyte which is free in solution and passes over the ligand (Healthcare, G., Biacore™ Assay Handbook 29-0194-00 Edition AA). Interaction of the binding partners leads to SPR signals (responses), measured in resonance units (RU) and illustrated as plot against time (sensorgram).
Regarding the procedure, in brief, the analyte is injected on the chip, interacting with the immobilised ligand. The change in concentration of molecules at the chip surface leads to a change in the refractive index, monitored as response unit (RU). Dissociation of analyte is triggered by continues buffer flow, followed by complete removal (chip regeneration) and starting of a new analysis cycle. […]
Interaction kinetics are examined by monitoring different analyte concentrations over time. Kinetic parameters, such as association (ka) and dissociation rate constants (kd) are evaluated in relation to a mathematical model. […]

T1 sequence (P01870 whole entry): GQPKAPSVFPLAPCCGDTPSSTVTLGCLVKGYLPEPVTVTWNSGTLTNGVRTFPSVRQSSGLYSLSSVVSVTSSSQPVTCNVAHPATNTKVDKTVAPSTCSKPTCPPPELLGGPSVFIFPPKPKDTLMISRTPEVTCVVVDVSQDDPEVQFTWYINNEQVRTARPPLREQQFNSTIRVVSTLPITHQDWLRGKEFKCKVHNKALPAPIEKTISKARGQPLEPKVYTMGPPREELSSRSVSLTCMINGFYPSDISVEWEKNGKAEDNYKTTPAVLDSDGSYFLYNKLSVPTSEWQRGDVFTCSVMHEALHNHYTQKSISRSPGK

CDCAWHLGELVWCTC [Fc-III-4C]
higher binding affinity to human IgG compared to the original Fc-III (human IgG [1]; SPR): 30 fold
Kd (human IgG [1]; human IgG, Gong et al. 2016): 2.45 nM
Kd (rabbit IgG): 5.67 nM

DCAWHLGELVWCT [Fc-III]
binding affinity relative to Protein A (IgG-Fc-region): only about two fold weaker

B1: TtSlyD-Fc-III-2C Hit No. 4: SlyD chimera whose IF domain is replaced by Fc-III-XC peptide EDCAWHLGELVWCTE, SEQ ID NO: 16 (protein)
chain: MKVGQDKVVTIRYTLQVEGEVLDQGELSYLHGHRLIPGLEEALEGREEGEAFQAHVPAEKAYEDCAWHLGELVWCTEGKDLDFQVEVVKVREATPEELLHGHA
modifications: left off: small tags and cut ends
binding affinity KA (human IgG [2]): 1.09e+08 M⁻¹
t/2 diss (human IgG [2]): 36 min
